Results: patent US10329261B1, “Method of preparing 6-chloro-5-nitro-2,4-diaminopyrimidine and its application thereof” (XI'AN TAIKOMED PHARMACEUTICAL TECHNOLOGY CO., LTD., priority 2018, dated 2019)

Key:
Jurkat = assay: CCK8 assay, growth inhibition of leukemia cells; assay type: cell-based; conditions: for inhibition at 1 µM / inhibition at 5 µM / inhibition at 10 µM / inhibition at 50 µM / inhibition at 100 µM: Homo sapiens, 48 hours, read-out: Inhibition Rate % (X ± SD, n = 5); for inhibition at 1 µM: 1 μmol/L; for inhibition at 5 µM: 5 μmol/L; for inhibition at 10 µM: 10 μmol/L; for inhibition at 50 µM: 50 μmol/L; for inhibition at 100 µM: 100 μmol/L
Procedure: (§1) Measuring the Inhibitory Effect of 6-Chloro-5-Nitro-2,4-Diaminopyrimidine on the Growth of Six Leukemia Cells by CCK8 Assay
(§2) Cell lines: HL-60 (acute myeloid leukemia), Jurkat (acute T cell leukemia), K562 (chronic myeloid leukemia), EOL-1 (human eosinophil leukemia), Dami (human megakaryocytic leukemia), 6T-CEM (human T cell leukemia) were provided by the Affiliated Hospital of Guangdong Medical College. The cells were cultured in RPMI1640 medium containing 10% fetal bovine serum, penicillin 100 U/mL, streptomycin 100 mg/L, at 37° C., 5% CO2, and saturated humidity, in incubator, and logarithmic growth phase cells were used for experiments.
(§3) Test compounds: Imatinib solution and 6-chloro-5-nitro-2,4-diaminopyrimidine solution were prepared with physiological saline, and the final concentrations of the compounds were 1, 5, 10, 50, and 100 μmol/L.
(§4) Test method: Take the logarithmic growth leukemia cell lines, count, and inoculate at a density of 1×10^5/mL in a 96-well culture plate, 100 μL per well. After 24 hours of culture, 100 μL medium containing the different concentrations (double the target/final concentration) of compounds was added to each well. The medium containing the highest concentration of DMSO was used as a control. After 48 hours, 20 μL of CCK8 coloring solution was added to each well, the color was developed at 37° C., and OD450 was measured with a microplate reader until the absorbance was about 1.5. The inhibition rate was calculated by the following formula. Inhibition Rate (%)=(1−absorbance of the test compound/absorbance of the control)×100%

K-562 = assay: CCK8 assay, growth inhibition of leukemia cells; assay type: cell-based; conditions: for inhibition at 1 µM / inhibition at 5 µM / inhibition at 10 µM / inhibition at 50 µM / inhibition at 100 µM: Homo sapiens, K562, 48 hours, read-out: Inhibition Rate % (X ± SD, n = 5); for inhibition at 1 µM: K-562, 1 μmol/L; for inhibition at 5 µM: K-562, 5 μmol/L; for inhibition at 50 µM: K-562, 50 μmol/L; for inhibition at 100 µM: K-562, 100 μmol/L
Procedure: as §1, §2, §3, §4

HL-60 = assay: CCK8 assay, growth inhibition of leukemia cells; assay type: cell-based; conditions: for inhibition at 1 µM / inhibition at 5 µM / inhibition at 10 µM / inhibition at 50 µM / inhibition at 100 µM: Homo sapiens, 48 hours, read-out: Inhibition Rate % (X ± SD, n = 5); for inhibition at 1 µM: HL-60, 1 μmol/L; for inhibition at 5 µM: HL-60, 5 μmol/L; for inhibition at 10 µM: HL-60, 10 μmol/L; for inhibition at 50 µM: HL-60, 50 μmol/L; for inhibition at 100 µM: HL-60, 100 μmol/L
Procedure: as §1, §2, §3, §4

Dami = assay: CCK8 assay, growth inhibition of leukemia cells; assay type: cell-based, human; conditions: for inhibition at 1 µM / inhibition at 5 µM / inhibition at 10 µM / inhibition at 50 µM / inhibition at 100 µM: Homo sapiens, 48 hours, read-out: Inhibition Rate % (X ± SD, n = 5); for inhibition at 1 µM: 1 μmol/L; for inhibition at 5 µM: 5 μmol/L; for inhibition at 10 µM: 10 μmol/L; for inhibition at 50 µM: 50 μmol/L; for inhibition at 100 µM: 100 μmol/L
Procedure: as §1, §2, §3, §4

EOL-1 = assay: CCK8 assay, growth inhibition of leukemia cells; assay type: cell-based, human; conditions: for inhibition at 1 µM / inhibition at 5 µM / inhibition at 10 µM / inhibition at 50 µM / inhibition at 100 µM: Homo sapiens, EOL1, 48 hours, read-out: Inhibition Rate % (X ± SD, n = 5); for inhibition at 1 µM: EOL-1, 1 μmol/L; for inhibition at 5 µM: EOL-1, 5 μmol/L; for inhibition at 10 µM: EOL-1, 10 μmol/L; for inhibition at 50 µM: EOL-1, 50 μmol/L; for inhibition at 100 µM: EOL-1, 100 μmol/L
Procedure: as §1, §2, §3, §4

6T-CEM = assay: CCK8 assay, growth inhibition of leukemia cells; assay type: cell-based, human; conditions: for inhibition at 1 µM / inhibition at 5 µM / inhibition at 10 µM / inhibition at 50 µM / inhibition at 100 µM: Homo sapiens, 48 hours, read-out: Inhibition Rate % (X ± SD, n = 5); for inhibition at 1 µM: 1 μmol/L; for inhibition at 5 µM: 5 μmol/L; for inhibition at 10 µM: 10 μmol/L; for inhibition at 50 µM: 50 μmol/L; for inhibition at 100 µM: 100 μmol/L
Procedure: as §1, §2, §3, §4

K-562 leukemia = assay: Inhibition test of nude mice inoculated with K-562 cell line; assay type: in vivo; conditions: for Tumor weight (X ± SE) / Inhibition (%): ip × 7, nude mice with K-562; for Tumor weight (X ± SE): in g (unit assumed); for Inhibition (%): tumor inhibition rate
Procedure: Inhibition Test of Nude Mice Inoculated with K-562 Cell Line
Test compounds: 6-chloro-5-nitro-2,4-diaminopyrimidine and imatinib dissolved in normal saline.
Administration route: intraperitoneal injection (ip).
Test animals: nude mice, SPF level.
Cell line: chronic myeloid leukemia cell line K-562, from the Affiliated Hospital of Guangdong Medical College
Test method: 50 nude mice weighing 18-22 grams, both male and female. The K-562 cell was diluted to a final concentration of 10 million cells/mL for leukemia cells; each mouse was inoculated subcutaneously with 0.2 mL (containing […] leukemia cells). On the next day, the mice were randomly divided to 5 groups: 6-chloro-5-nitro-2,4-diaminopyrimidine group (dose: 3 mg/kg), 6-chloro-5-nitro-2,4-diaminopyrimidine group (dose: 8 mg/kg), 6-chloro-5-nitro-2,4-diaminopyrimidine group (dose: 20 mg/kg), positive control group (imatinib, 8 mg/kg) and blank control group. The 6-chloro-5-nitro-2,4-diaminopyrimidine groups and the positive control group were administered once a day for 7 consecutive days; the blank control group was given a corresponding volume of NS liquid. No test compounds were given for one day after the last dose. Animals were sacrificed by cervical dislocation, and weighed and dissected to weigh. The tumor weights were calculated for each group. The leukemia inhibition rate was calculated according to the following formula. Tumor inhibition rate=(mean tumor weight in the control group−average tumor weight in the administration group)/mean tumor weight in the control group×100%,

SMILES: Nc1nc(N)c([N+](=O)[O-])c(Cl)n1 [6-chloro-5-nitro-2,4-diaminopyrimidine]
- inhibitory effect on the cell line (in words) (Jurkat): does not show any inhibition
- inhibition at 1 µM (Jurkat): -13.5%
- inhibition at 5 µM (Jurkat): -15.9%
- inhibition at 10 µM (Jurkat): -27%
- inhibition at 50 µM (Jurkat): -28.1%
- inhibition at 100 µM (Jurkat): -30%
- inhibition at 1 µM (K-562): 45.5%
- inhibition at 5 µM (K-562): 61.5%
- inhibition at 10 µM (K-562; K-562, 10 μmol/L): 76.8%
- inhibition at 50 µM (K-562): 77.3%
- inhibition at 100 µM (K-562): 78.4%
- inhibition rate compared with imatinib (K-562; K-562, 10 μmol/L): exceeds that of imatinib
- inhibitory effect on the cell line (in words) (K-562; K-562 cell line): good inhibitory effect
- selectivity among the six leukemia cell lines (in words) (K-562; K-562 versus HL-60, Jurkat, EOL-1, Dami, 6T-CEM): selectively inhibits chronic myelogenous leukemia cell line
- inhibitory effect on the cell line (in words) (HL-60; HL-60): does not show any inhibition
- inhibition at 1 µM (HL-60): 3.87%
- inhibition at 5 µM (HL-60): -1.12%
- inhibition at 10 µM (HL-60): -7.66%
- inhibition at 50 µM (HL-60): -9.26%
- inhibition at 100 µM (HL-60): -14.2%
- inhibitory effect on the cell line (in words) (Dami): does not show any inhibition
- inhibition at 1 µM (Dami): -14.2%
- inhibition at 5 µM (Dami): -17.7%
- inhibition at 10 µM (Dami): -22%
- inhibition at 50 µM (Dami): -26%
- inhibition at 100 µM (Dami): -30.3%
- inhibitory effect on the cell line (in words) (EOL-1; EOL-1): does not show any inhibition
- inhibition at 1 µM (EOL-1): -22.4%
- inhibition at 5 µM (EOL-1): -23%
- inhibition at 10 µM (EOL-1): -23.3%
- inhibition at 50 µM (EOL-1): -19.3%
- inhibition at 100 µM (EOL-1): -18.9%
- inhibitory effect on the cell line (in words) (6T-CEM): does not show any inhibition
- inhibition at 1 µM (6T-CEM): -17.5%
- inhibition at 5 µM (6T-CEM): -21.1%
- inhibition at 10 µM (6T-CEM): -25.5%
- inhibition at 50 µM (6T-CEM): -28.1%
- inhibition at 100 µM (6T-CEM): -31%
- Tumor weight (X ± SE) (K-562 leukemia; 3 mg/kg): 1.84
- Tumor weight (X ± SE) (K-562 leukemia; 8 mg/kg): 0.87
- Tumor weight (X ± SE) (K-562 leukemia; 20 mg/kg): 0.74
- Inhibition (%) (K-562 leukemia; 3 mg/kg): 48.41%
- Inhibition (%) (K-562 leukemia; 8 mg/kg): 75.18%
- Inhibition (%) (K-562 leukemia; 20 mg/kg): 79.34%

SMILES: Cc1ccc(NC(=O)c2ccc(CN3CCN(C)CC3)cc2)cc1Nc1nccc(-c2cccnc2)n1 [Imatinib, reference compound]
- inhibition at 1 µM (Jurkat): 66.7%
- inhibition at 5 µM (Jurkat): 71%
- inhibition at 10 µM (Jurkat): 73.3%
- inhibition at 50 µM (Jurkat): 85.7%
- inhibition at 100 µM (Jurkat): 90.9%
- inhibition at 1 µM (K-562): 66.4%
- inhibition at 5 µM (K-562): 67.9%
- inhibition at 10 µM (K-562; K-562, 10 μmol/L): 71.6%
- inhibition at 50 µM (K-562): 83.1%
- inhibition at 100 µM (K-562): 88.3%
- inhibition at 1 µM (HL-60): 62.2%
- inhibition at 5 µM (HL-60): 69.5%
- inhibition at 10 µM (HL-60): 64.6%
- inhibition at 50 µM (HL-60): 83.1%
- inhibition at 100 µM (HL-60): 84.5%
- inhibition at 1 µM (Dami): 61.3%
- inhibition at 5 µM (Dami): 65.4%
- inhibition at 10 µM (Dami): 69.3%
- inhibition at 50 µM (Dami): 82.1%
- inhibition at 100 µM (Dami): 89.4%
- inhibition at 1 µM (EOL-1): 63.6%
- inhibition at 5 µM (EOL-1): 66.2%
- inhibition at 10 µM (EOL-1): 68.4%
- inhibition at 50 µM (EOL-1): 79.1%
- inhibition at 100 µM (EOL-1): 86.4%
- inhibition at 1 µM (6T-CEM): 68.2%
- inhibition at 5 µM (6T-CEM): 70.8%
- inhibition at 10 µM (6T-CEM): 74.9%
- inhibition at 50 µM (6T-CEM): 86.5%
- inhibition at 100 µM (6T-CEM): 91.3%
- Number of mice before and after (K-562 leukemia; 8 mg/kg, ip × 7): 10/10
- Tumor weight (X ± SE) (K-562 leukemia; 8 mg/kg): 0.93
- Mouse weight after (K-562 leukemia; 8 mg/kg, ip × 7, weight before 19.5): 20.4
- Inhibition (%) (K-562 leukemia; 8 mg/kg): 74.02%
